Patent publication US20080254993A1, “Use of abscisic acid analogs to enhance growth control” (priority 2007, published 2008)

Tests used:
[1] = system: Kentucky bluegrass; assay: Greenhouse study on Kentucky bluegrass: turfgrass height, clip weight, turfgrass quality (Example 1); format: in vivo
Description: Greenhouse studies were conducted at the Research Farm of Valent BioSciences Corporation (Long Grove, Ill.). Grasses were grown in pots (18 cm in diameter and 18 cm in height) filled with Promix BX (available from Premier Horticulture Inc. Quakertown, Pa.). Grass was irrigated daily by an overhead irrigation system. The irrigation system was set up with multiple Tornado Mist Spray Heads (10 GPH at 40 PSI-Wetted diameter, NDS/Raindrip, Woodland Hills, Calif.). Spray heads were 1-meter apart from each other and 75 cm above grass canopy. Grass was cut with a scissor at 2.5 cm height and fertilizer (1 g/L all purpose fertilizer 20-20-20, available from The Scotts Company, Marysville, Ohio) was applied once per week.
(§1) Chemical solutions were prepared with distilled water. Tween 20 (0.05% v/v) was used as the surfactant when necessary. Trinexapac-ethyl (commercial product Primo Maxx, 11.3% active ingredient) was purchased from Syngenta Crop Protection Inc. (Greensboro, N.C.). ABA analogs, 8′ acetylene-ABA, acid (PBI-524), 8′ acetylene-ABA, ester (PBI-429), 8′ cyclopropane ester (PBI-696), or Tetralone, first carbon tail acetylene, ester (PBI-702), were obtained from Plant Biotechnology Institute, National Research Council of Canada (Saskatoon, Saskatchewan, Canada).
(§2) Chemical solutions were foliar applied to the turfgrass canopy at the rate of 4-gallons/1000 square foot (or 0.163 L/m^−2) immediately after finishing the preparation of solutions. After treatment, turfgrasses were arranged in a randomized complete block experimental design. Turfgrass quality, turfgrass height or clip fresh weight was measured on assigned dates. Turfgrass quality was visually rated on a 0-9 scale based on the color, uniformity, and density of the grass with 0 as the worst and 9 as the best. Turfgrass height was measured as the distance between canopy surface and soil. Clippings were collected form each plot; all plots were cut to a uniform height.
(§3) All experiments were randomized complete block experimental design. Data were analyzed by analysis of variance. Duncan's new multiple range tests at α=0.05 were used for mean separations.
Kentucky bluegrass sod was purchased from Deak sod farms, Inc. (Union Grove, Wis.). Grass was grown in the greenhouse for 94 days for establishment. Turfgrass was treated with one time foliar application of 50 ppm PBI-524, PBI-429, PBI-696 or PBI-702 alone or in combination with 250 ppm trinexapac-ethyl. The turfgrass was cut every 7 days. Turfgrass quality, turfgrass height, and clip weight were measured on days 7 and 35 after treatment.

[2] = system: creeping bentgrass; assay: Golf course green field study on creeping bentgrass with PBI-702: turfgrass height, soil moisture, turf quality (Example 3); format: in vivo, Penncross creeping bentgrass; settings: for Soil moisture / Turfgrass height / Turf quality: 50 ppm PBI-702 alone; for Turf quality: visual 0-9 scale, 9 best
Description: Field studies were conducted at the nursery green or the practice green at Countryside golf course (Mundelein, Ill.). Both greens were sand based and growing Penncross creeping bentgrass. Grass was managed with typical Illinois golf course management practices.
as §1, §2, §3
Trinexapac-ethyl (25 ppm) or PBI-702 (50 ppm) were one time foliar applied alone or in combination to creeping bentgrass in the golf course green to investigate their effect on turfgrass quality, growth inhibition and soil moisture.

[3] = 7 days after treatment, 50 ppm ABA analog alone
[4] = 35 days after treatment, 50 ppm ABA analog alone

Structure (SMILES) | Clip Weight [1, 3] | Turfgrass height [1, 3] | Turfgrass quality ([1]; 7 days after treatment, 50 ppm ABA analog alone, visual 0-9 scale, 9 best) | Turfgrass height and clip weight compared to the control (in words) ([1]; 7 days after treatment, trinexapac-ethyl 250 ppm, PBI-524 or PBI-429 50 ppm, alone or combined) | Clip Weight [1, 4] | Turfgrass height [1, 4] | Turfgrass height and clip weight (in words) [1, 4] | Soil moisture ([2]; 4 days after treatment) | Turfgrass height ([2]; 4 days after treatment) | Soil moisture ([2]; 7 days after treatment) | Turfgrass height ([2]; 7 days after treatment) | Turf quality ([2]; 7 days after treatment) | Reducing growth (in words) ([2]; 7 days after treatment, trinexapac-ethyl 25 ppm, PBI-702 50 ppm, alone or combined) | Soil moisture ([2]; 38 days after treatment) | Turfgrass height ([2]; 38 days after treatment) | Turf quality ([2]; 38 days after treatment)
C#CC1(C)CC(=O)C=C(C)C1(O)C=CC(C)=CC(=O)O (stereo not shown) [PBI-524, 8′ acetylene-ABA, acid] | 0.5 g | 5.8 cm | 6.6 | reduced turfgrass height and clip weight compared to the control | 1.9 g | 8.0 cm | no longer reduced turfgrass height and clip weight |  |  |  |  |  |  |  |  | 
COC(=O)/C=C(/C)C#CC1(O)c2ccccc2C(=O)CC1(C)C (stereo not shown) [PBI-702, Tetralone, first carbon tail acetylene, ester] |  |  |  |  |  |  |  | 12.3% | 6.7 mm | 11.5% | 6.5 mm | 7.3 | effective at reducing growth | 12.4% | 5.5 mm | 7.6
